This is an account of results in US11911396B2, “Use of compound in preparation of drug for treating cerebral small vessel disease” (GUANGZHOU CELLPROTEK PHARMACEUTICAL CO., LTD, priority 2017, dated 2024).

Assay [1] concerns CD163. Description: Immunofluorescence of CD163 in prefrontal cortex brain tissue, acute hypobaric hypoxia model. It counts as in vivo, cynomolgus monkeys. The settings on record: FIGS. 5A and 5B. From the text: (§1) FIG. 5. […] A. Immunofluorescence imaging of CD163 and Iba-1 in the brain tissue of cynomolgus monkeys. B. Statistics of relative fluorescence intensity of CD163 and Iba-1. C. Correlation analysis of relative fluorescence intensity of CD163 and Iba-1. NN: Normobaric Normoxia group; HH: Hypobaric Hypoxia group; HH+Triol: Hypobaric Hypoxia with Triol administration group; HH+PROG: Hypobaric Hypoxia with progesterone administration group. One-way ANOVA analysis and Dunnutt's t test were used to perform statistical tests, and in the latter each group was compared with the HH group, ***, p<0.001.
(§2) The thickness of paraffin sections was 5 μm. For fresh paraffin sections, the sections were dried at 37° C. overnight and then dried at 55° C. for 30 minutes. The sections were quickly placed in xylene for dewaxing. After fully dewaxing with xylene for 10 min for 3 times, absolute ethanol-95% ethanol-90% ethanol-80% ethanol-70% ethanol-50% ethanol-ddH2O were successively used for gradient rehydration. After rehydration, the sections were placed in EDTA antigen repair solution for microwave high temperature repair. After the repair was completed, it was allowed naturally cool down to room temperature. […] NIS-Elements Analysis software was used to analyze the fluorescence intensity of confocal images, which was then normalized with the fluorescence intensity per unit area according to the built-in scale. […]

The test system of assay [2] is Iba1. Description: Immunofluorescence of Iba1 in prefrontal cortex brain tissue, acute hypobaric hypoxia model. In kind it is in vivo, cynomolgus monkeys. The settings on record: FIG. 5.
From the text: as §1, §2

The test system of assay [3] is CD11b in microglia BV2. Briefly: Western blot of CD11b in BV2 cells stimulated with hemoglobin and hypoxia, with or without CD163 RNA interference. In kind it is cell-based. The following applies: 10 μM Triol, 20 μM hemoglobin and 1% hypoxia for 6 hours. The procedure: FIG. 7. […] According to the manufacturer's instructions, RNAiMAX was used to transfect CD163 No. 01 and scrambled interference fragment NC respectively to BV2 cells, BV2 cell culture medium was then added with or without 10 μM Triol, and BV2 cells were stimulated with 20 μM hemoglobin and 1% hypoxia for 6 hours, after which protein samples were collected, and the expression of microglial activation markers Iba-1 and CD11b was detected by Western blot.
1) Preparation of protein samples (see the instructions of M-PER protein lysate): After the cells had been processed for the specified time, the medium was aspirated and then washed with 4° C. pre-chilled PBS (0.01M pH7.2˜7.3) for 3 times. 150-200 ul of M-PER protein lysate mixed with protease inhibitor (PMSF 100×) was added, which was lysed on ice for 10 minutes to fully lyse the cells. […] 2) BCA protein quantification (see the instructions of BCA protein quantification kit): corresponding components were added to a 96-well detection plate by the ratio of quantification reagent A solution:B solution:ddH2O:protein=100:2:7.5:5, and albumin standards diluted in gradient concentration were added to draw a standard curve. […] After the reaction, the absorbance of each well at a wavelength of 562 nm was detected using a microplate reader. […]
Background: In western blotting, separated proteins are transferred to a membrane and probed.

Consider `C[C@@]12CCCC1C1C[C@@H](O)[C@@]3(O)C[C@@H](O)CC[C@]3(C)C1CC2` (stereo partly drawn) [Triol, 5α-androst-3β,5,6β-triol], for which, in assay [1], the “down-regulation of CD163 expression caused by acute hypobaric hypoxia” value is given as “significantly restored”. Further, the Iba1 expression result in assay [2] is recorded as “down-regulation”. Besides, in assay [3] (without CD163 interference), the “effect on the up-regulation of CD11b in hypoxia and hemoglobin-activated microglia cells” value is listed as “inhibitory effect”. For the same molecule, the “inhibitory effect on the up-regulation of CD11b after interfering CD163” value in assay [3] (CD163 RNA interference, FIG. 7) is listed as “cancelled”.
